Data reported in patent publication US20260042764A1, “COMPOSITIONS AND METHODS FOR INHIBITION OF KRAS” (TheRas, Inc., priority 2022, published 2026).
pIC50: −log10 of the molar value.

Tests used:
[1] = tested on: SW620 cells (KRAS G12V); experiment: Cell-based pERK HTRF assay in SW620 cell (Biological Example 4); details: Homo sapiens, SW-620, SW620 (KRAS G12V) cells, pERK HTRF
In short: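 Read-out: HTRF pERK signal (excitation 320 nm, emission 615 nm) from lysates of SW620 cells after 4 h compound exposure. Dose range was 9 points, half-log steps from 1 μM, in 0.25% DMSO; antibody incubation ran 4–24 h at room temperature.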

[2] = molecular target: T1, Avi-KRAS G12V (1-169) GppNHp/RAF1 RBD-3xFLAG (52-151) (Homo sapiens, UniProt P01116, G12V); experiment: Raf1-KRAS G12V-GppNHP disruption HTRF assay (Biological Example 1); format: binding
T1 construct: Avi-KRAS G12V (1-169)
T1 sequence (P01116 1-169 isoform P01116-2 G12V): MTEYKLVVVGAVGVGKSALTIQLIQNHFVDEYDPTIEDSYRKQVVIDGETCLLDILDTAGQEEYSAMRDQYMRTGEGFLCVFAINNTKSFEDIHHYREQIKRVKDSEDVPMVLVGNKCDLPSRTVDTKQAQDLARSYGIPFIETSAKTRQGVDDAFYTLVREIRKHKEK
In short: (§1)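 HTRF PPI disruption; buffer 50 mM Tris pH 7.5, 100 mM NaCl, 5 mM MgCl2, 0.1% BSA, 0.01% Tween, 10% DMSO. Protein mix 1 h RT shaking, reagent mix 1 h RT shaking. Data as % activity vs DMSO (100%).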

[3] = molecular target: T2, Avi-KRAS G12R (1-169) GppNHp/RAF1 RBD-3xFLAG (52-151) (Homo sapiens, UniProt P01116, G12R); experiment: Raf1-KRAS G12R-GppNHP disruption HTRF assay (Biological Example 1); format: binding
T2 construct: Avi-KRAS G12R (1-169)
T2 sequence (P01116 1-169 isoform P01116-2 G12R): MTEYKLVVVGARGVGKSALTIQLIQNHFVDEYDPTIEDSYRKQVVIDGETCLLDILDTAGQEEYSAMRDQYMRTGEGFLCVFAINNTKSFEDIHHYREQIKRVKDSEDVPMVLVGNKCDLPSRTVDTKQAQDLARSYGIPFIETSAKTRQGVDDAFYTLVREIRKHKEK
In short: as §1

[4] = molecular target: T3, Avi-KRAS WT (1-169) GppNHp/RAF1 RBD-3xFLAG (52-151) (Homo sapiens, UniProt P01116); experiment: Raf1-KRAS WT-GppNHP disruption HTRF assay (Biological Example 1); format: binding
T3 construct: Avi-KRAS WT (1-169)
T3 sequence (P01116 1-169 isoform P01116-2): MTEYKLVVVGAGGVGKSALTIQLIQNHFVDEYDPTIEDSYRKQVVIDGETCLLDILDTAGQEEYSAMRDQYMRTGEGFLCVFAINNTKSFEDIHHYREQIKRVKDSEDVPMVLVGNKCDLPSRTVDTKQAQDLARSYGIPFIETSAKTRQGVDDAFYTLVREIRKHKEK
In short: as §1

[5] = tested on: GP2d cells (KRAS G12D); experiment: Cell-based pERK HTRF assay in GP2d cell (Biological Example 2); details: GP2d, GP2d (KRAS G12D) cells, pERK HTRF
In short: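 Phospho-ERK in lysed cells was detected by HTRF using Eu cryptate and d2 antibodies, read between 4 and 24 h at room temperature. Prior to lysis, KRAS G12D GP2d cells, seeded the day before in DMEM with 10% FBS, were exposed to compounds for 60 min. Compounds were tested as 9-point half-log curves from 1 μM or 100 nM top, with 0.25% DMSO.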

[6] = molecular target: T4, Avi-KRAS G12D (1-169) GppNHp/RAF1 RBD-3xFLAG (52-151) (Homo sapiens, UniProt P01116, G12D); experiment: Raf1-KRAS G12D-GppNHP disruption HTRF assay (Biological Example 1); format: binding
T4 construct: Avi-KRAS G12D (1-169)
T4 sequence (P01116 1-169 isoform P01116-2 G12D): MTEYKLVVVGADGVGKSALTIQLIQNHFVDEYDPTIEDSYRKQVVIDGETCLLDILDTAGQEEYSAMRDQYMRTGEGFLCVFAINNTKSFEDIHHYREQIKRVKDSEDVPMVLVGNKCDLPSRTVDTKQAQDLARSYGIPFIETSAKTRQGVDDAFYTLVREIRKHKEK
In short: as §1

[7] = KRAS G12V, GppNHp-loaded, Table 11
[8] = KRAS G12R, GppNHp-loaded, Table 11
[9] = KRAS WT, GppNHp-loaded, Table 11
[10] = KRAS G12D, GppNHp-loaded, Table 11
[11] = KRAS G12V, GppNHp-loaded, class symbols
[12] = KRAS G12R, GppNHp-loaded, class symbols
[13] = KRAS WT, GppNHp-loaded, class symbols
[14] = KRAS G12D, GppNHp-loaded, class symbols

Compound	pIC50 [1]	pIC50 ([2]; KRAS G12V-GppNHp/RAF1 RBD HTRF)	pIC50 ([3]; KRAS G12R-GppNHp/RAF1 RBD HTRF)	pIC50 ([4]; KRAS WT-GppNHp/RAF1 RBD HTRF)	pIC50 [5]	pIC50 ([6]; KRAS G12D-GppNHp/RAF1 RBD HTRF)	pIC50 [2, 7]	pIC50 [3, 8]	pIC50 [4, 9]	pIC50 [6, 10]	pIC50 ([1]; class symbols)	pIC50 [2, 11]	pIC50 [3, 12]	pIC50 [4, 13]	pIC50 ([5]; class symbols)	pIC50 [6, 14]
N#Cc1c(N)sc2c(F)ccc(-c3c(C(F)(F)F)cc4c(N5CCc6[nH]ncc6C5)nc(OCC56CCCN5CC(F)C6)nc4c3F)c12 (stereo not drawn) [Compound 449]	6.00 to 7.00	5.00 to 6.00	5.00 to 6.00	5.00 to 6.00	6.00 to 7.00	5.00 to 6.00										
CC(C)C(=O)N1CC[C@@H](N(C)c2nc(OC[C@@]34CCCN3C[C@H](F)C4)nc3c(F)c(-c4ccc(F)c5sc(N)c(C#N)c45)c(C(F)(F)F)cc23)[C@@H]1C [Compound 300]	6.00 to 7.00	5.00 to 6.00	5.00 to 6.00	6.00 to 7.00	> 7.00	6.00 to 7.00										
CC(=O)N1C[C@@H](F)[C@@H](N(C)c2nc(OC[C@@]34CCCN3C[C@H](F)C4)nc3c(F)c(-c4ccc(F)c5sc(N)c(C#N)c45)c(C(F)(F)F)cc23)C1 [Compound 237]	> 7.00				> 7.00		6.00 to 7.00	6.00 to 7.00	6.00 to 7.00	6.00 to 7.00						
Cc1c(C(=O)N2CCC2)nn2c1CN(c1nc(OCC34CCCN3CC(F)C4)nc3c(F)c(-c4ccc(F)c5sc(N)c(C#N)c45)c(C(F)(F)F)cc13)CC2 (stereo not drawn) [Compound 742]											> 7.00	6.00 to 7.00	6.00 to 7.00	5.00 to 6.00	> 7.00	6.00 to 7.00
N#Cc1c(N)sc2c(F)ccc(-c3c(C(F)(F)F)cc4c(N5C[C@@H]6C[C@H]5CO6)nc(OC[C@@]56CCCN5C[C@H](F)C6)nc4c3F)c12 [Compound 259]	> 7.00				> 7.00		5.00 to 6.00	6.00 to 7.00	6.00 to 7.00	6.00 to 7.00						
CCC(=O)N1CC[C@@](C)(N(C)c2nc(OC[C@@]34CCCN3C[C@H](F)C4)nc3c(F)c(-c4ccc(F)c5sc(N)c(C#N)c45)c(C(F)(F)F)cc23)[C@H]1C [Compound 343]	6.00 to 7.00	5.00 to 6.00	< 5.00	5.00 to 6.00	6.00 to 7.00	5.00 to 6.00										
CN(c1nc(OC[C@@]23CCCN2C[C@H](F)C3)nc2c(F)c(-c3ccc(F)c4sc(N)c(C#N)c34)c(C(F)(F)F)cc12)C12CC(CO)(C1)C2 [Compound 351]	> 7.00	5.00 to 6.00	6.00 to 7.00	6.00 to 7.00	> 7.00	6.00 to 7.00										
CNC(=O)CN(C)c1nc(OC[C@@]23CCCN2C[C@H](F)C3)nc2c(F)c(-c3ccc(F)c4sc(N)c(C#N)c34)c(C(F)(F)F)cc12 [Compound 209]	6.00 to 7.00				> 7.00		6.00 to 7.00	6.00 to 7.00	6.00 to 7.00	6.00 to 7.00						
CCN(c1nc(OC[C@@]23CCCN2C[C@H](F)C3)nc2c(F)c(-c3ccc(F)c4sc(N)c(C#N)c34)c(C(F)(F)F)cc12)[C@H]1CCN(C(=O)N2CCC2)C1 (atropisomer, axis not shown) [Compound 574]											> 7.00	> 7.00	> 7.00	> 7.00	> 7.00	> 7.00
CC(=O)N1C[C@@H]2CC[C@H]1CN2c1nc(OC[C@@]23CCCN2C[C@H](F)C3)nc2c(F)c(-c3ccc(F)c4sc(N)c(C#N)c34)c(C(F)(F)F)cc12 [Compound 455]	6.00 to 7.00	5.00 to 6.00	6.00 to 7.00	6.00 to 7.00	> 7.00	6.00 to 7.00										
CCN(c1nc(OC[C@@]23CCCN2C[C@H](F)C3)nc2c(F)c(-c3ccc(F)c4sc(N)c(C#N)c34)c(Cl)cc12)[C@@H]1CCN(C(C)=O)[C@H]1C [Compound 416]	6.00 to 7.00	5.00 to 6.00	5.00 to 6.00	6.00 to 7.00	> 7.00	6.00 to 7.00										
CC(=O)N1C[C@H](F)[C@@H](N(C)c2nc(OC[C@@]34CCCN3C[C@H](F)C4)nc3c(F)c(-c4ccc(F)c5sc(N)c(C#N)c45)c(C(F)(F)F)cc23)C1 [Compound 273]	6.00 to 7.00				> 7.00		6.00 to 7.00	6.00 to 7.00	6.00 to 7.00	6.00 to 7.00						
